Values of other authors as cited in patent US20210000980A1, “METHOD AND COMPOSITION FOR THE DETECTION OF ARTHROPODS” (ARKE' S.r.l., priority 2018, published 2021).

System: lice
Conditions: 10% formic acid solution in water

Compound: O=CO [formic acid]
- lice removed: ≤ 94%
